Laboratory results taken from PMC9643456, “Matching amino acids membrane preference profile to improve activity of antimicrobial peptides” (Communications Biology, 2022).
≈ marks a conversion by molar mass, not a printed value. Where two headings read alike, the source gives them in different places. Square brackets hold non-standard residues; d marks the D form. Ends that are not written are not given here. Peptide text beside a SMILES is read from it.

Key:
MDR S. aureus = assay: microbe, parasite or virus in culture; details: for Minimum inhibitory concentrations, MDR S. aureus: CLSI broth microdilution, CAMHB with 50 mg/L Ca2+, 10 mg/L Mg2+, 5 × 10^5 CFU/ml, 18 h 37 °C, triplicate, strain KCCM 40510
Description: (§1) MDR Pseudomonas aeruginosa (CCARM 2180) was purchased from the Culture Collection of Antimicrobial Resistance Microbes (Seoul, Republic of Korea). MDR Acinetobacter baumannii (ATCC BAA-1605) and MDR Enterococcus faecalis (ATCC 51575) were purchased from the American Type Culture Collection (Manassas, VA, USA). MDR Staphylococcus aureus (KCCM 40510) was purchased from the Korean Culture Center of Microorganisms (Seoul, Republic of Korea). S. aureus (KCTC 1621) was purchased from the Korean Collection for Type Cultures. A. baumannii (KCCM 40203) was purchased from the Korean Culture Center of Microorganisms (Seoul, Republic of Korea).
(§2) To assess antimicrobial activity, the MIC50 and MIC90 were measured using broth microdilution following CLSI guidelines. […] Each experiment was performed in triplicate. Meropenem (Sigma, Darmstadt, Germany) and colistin were used as control antibiotics. Cation-adjusted Mueller–Hinton broth (CAMHB) (Becton, Dickinson and Company, Franklin Lakes, USA) with supplied calcium (50 mg/L) and magnesium (10 mg/L) was used for the CLSI-test condition. Bacteria in midlog phase and peptides were separately diluted in CAMHB. The bacteria and peptide solutions were then mixed in 96-well polyethylene plates (SPL, Gyeonggi-do, Korea) and incubated for 18 h at 37 °C. The final concentration for bacteria was 5 × 10^5 CFU/ml. […] The MIC was defined to be the lowest concentration of peptide without visible turbidity by comparing with control antibiotics with the unaided eye. […] Each experiment was performed in triplicate. MICs in albumin and acetic acid solutions were measured using the same protocol but with 0.2% bovine serum albumin (Bovogen, Keilor, Australia), 0.01% acetic acid (Merck, New Jersey, USA), and CAMHB with both calcium and magnesium. In addition, MICs used in the antibiotic resistance acquisition test, the outer–inner membrane permeation test, and the transmembrane potential test and for FE-SEM were individually determined. The final bacterial concentrations used were as follows: for resistance acquisition, optical density (OD) 0.01; for outer–inner membrane permeability assays (LB), OD 0.1; for the transmembrane potential test, 1 × 10^8 CFU/ml (OD 0.171); […]. Inhibitory activity unidentifiable by direct observation was determined by counting the CFUs. Each experiment was performed at least twice.

MDR E. faecalis = assay: microbe, parasite or virus in culture; details: for Minimum inhibitory concentrations, MDR E. faecalis: CLSI broth microdilution, CAMHB with 50 mg/L Ca2+, 10 mg/L Mg2+, 5 × 10^5 CFU/ml, 18 h 37 °C, triplicate, strain ATCC 51575
Description: as §1, §2

MDR A. baumannii = assay: microbe, parasite or virus in culture; details: for Minimum inhibitory concentrations, MDR A. baumannii: CLSI broth microdilution, CAMHB with 50 mg/L Ca2+, 10 mg/L Mg2+, 5 × 10^5 CFU/ml, 18 h 37 °C, triplicate, strain ATCC BAA-1605
Description: as §1, §2

MDR P. aeruginosa = assay: microbe, parasite or virus in culture; details: for Minimum inhibitory concentrations, MDR P. aeruginosa: CLSI broth microdilution, CAMHB with 50 mg/L Ca2+, 10 mg/L Mg2+, 5 × 10^5 CFU/ml, 18 h 37 °C, no visible turbidity, triplicate, strain CCARM 2180
Description: as §1, §2

human red blood cells = assay: Hemolytic activity; assay type: cell-based
In short: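 Haemolysis was read as A540 of cleared supernatants after 18 h at 37 °C, with 0% and 100% lysis set by peptide-free PBS and 1% Triton X-100 and melittin as positive control. Human RBCs were at 4% final, peptide serially diluted 100–0.78 μM; three replicates.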

[1] = CAMHB plus 0.2% bovine serum albumin and 0.01% acetic acid, values marked * in Table 2

| Compound | Minimum inhibitory concentrations, MDR S. aureus (MDR S. aureus) | Minimum inhibitory concentrations, MDR E. faecalis (MDR E. faecalis) | Minimum inhibitory concentrations, MDR A. baumannii (MDR A. baumannii) | Minimum inhibitory concentrations, MDR P. aeruginosa (MDR P. aeruginosa) | Hemolysis percent, 25 μM (human red blood cells) | Hemolysis percent, 50 μM (human red blood cells) | Hemolysis percent, 100 μM (human red blood cells) | Hemolysis percent, 25 μM (human red blood cells; red cells of human, 18 h, 25) | Hemolysis percent, 50 μM (human red blood cells; red cells of human, 18 h, 50) | Hemolysis percent, 100 μM (human red blood cells; red cells of human, 18 h, 100) | MIC in 0.2% albumin and 0.01% AcOH added CLSI standard condition, MDR S. aureus (MDR S. aureus; [1]) | MIC in 0.2% albumin and 0.01% AcOH added CLSI standard condition, MDR E. faecalis (MDR E. faecalis; [1]) | MIC in 0.2% albumin and 0.01% AcOH added CLSI standard condition, MDR A. baumannii (MDR A. baumannii; [1]) | MIC in 0.2% albumin and 0.01% AcOH added CLSI standard condition, MDR P. aeruginosa (MDR P. aeruginosa; [1]) |
| --- | --- | --- | --- | --- | --- | --- | --- | --- | --- | --- | --- | --- | --- | --- |
| NH2 wM l l w i g l r k k r CONH2 [WCopW15, WCopW analog] | 1.25 µM | 2.5 µM | 1.25 µM | 10 µM | 0.65% | 1.16% | 4.04% |  |  |  |  |  |  |  |
| CC[C@@H](C)[C@@H](NC(=O)[C@@H](Cc1c[nH]c2ccccc12)NC(=O)[C@@H](CC(C)C)NC(=O)[C@H](N)CC(C)C)C(=O)NCC(=O)N[C@H](CC(C)C)C(=O)N[C@H](CCCCN)C(=O)N[C@H](CCCCN)C(=O)N[C@H](CCCCN)C(=O)N[C@H](CCCCN)C(N)=O [WCopW14] (H-[dL][dL][dW][dI]G[dL][dK][dK][dK][dK]-NH2) | > 20 µM | > 20 µM | > 20 µM | > 20 µM |  |  |  | 0.98% | 1.06% | 1.10% |  |  |  |  |
| CC[C@@H](C)[C@@H](NC(=O)[C@@H](Cc1c[nH]c2ccccc12)NC(=O)[C@@H](CC(C)C)NC(=O)[C@@H](CC(C)C)NC(=O)[C@@H](Cc1c[nH]c2ccccc12)NC(=O)[C@@H](N)CO)C(=O)NCC(=O)N[C@H](CC(C)C)C(=O)N[C@H](CCCNC(=N)N)C(=O)N[C@H](CCCCN)C(=O)N[C@H](CCCCN)C(=O)N[C@H](CCCNC(=N)N)C(N)=O [WCopW19] (H-S[dW][dL][dL][dW][dI]G[dL][dR][dK][dK][dR]-NH2) | 2.5 µM (≈ 3.89 µg/mL) | 2.5 µM (≈ 3.89 µg/mL) | 2.5 µM (≈ 3.89 µg/mL) | 10 µM (≈ 15.5 µg/mL) |  |  |  | 4.32% | 7.26% | 10.57% |  |  |  |  |
| CC[C@@H](C)[C@@H](NC(=O)[C@@H](Cc1c[nH]c2ccccc12)NC(=O)[C@H](NC(=O)[C@@H](CC(C)C)NC(=O)[C@H](N)Cc1c[nH]c2ccccc12)C(C)C)C(=O)NCC(=O)N[C@H](CC(C)C)C(=O)N[C@H](CCCNC(=N)N)C(=O)N[C@H](CCCCN)C(=O)N[C@H](CCCCN)C(=O)N[C@H](CCCNC(=N)N)C(N)=O [WCopWV] (H-[dW][dL][dV][dW][dI]G[dL][dR][dK][dK][dR]-NH2) | 2.5 µM (≈ 3.63 µg/mL) | 2.5 µM (≈ 3.63 µg/mL) | 1.25 µM (≈ 1.82 µg/mL) | 10 µM (≈ 14.5 µg/mL) |  |  |  |  |  |  |  |  |  |  |
| WLLWIALRKK-NH2 [WCopW] | 5 µM | 10 µM | 5 µM | > 20 µM |  |  |  |  |  |  |  |  |  |  |
| WLLLLWRRR-NH2 [AcWL-3] | 5 µM | 5 µM | 2.5 µM | > 20 µM |  |  |  | 16.44 ±0.89% | 19.80 ±0.76% | 36.71 ±3.91% | 2.5 µM | 2.5 µM | 0.63 µM | > 20 µM |
| CC[C@@H](C)[C@@H](NC(=O)[C@@H](Cc1c[nH]c2ccccc12)NC(=O)[C@@H](C)NC(=O)[C@@H](C)NC(=O)[C@H](N)Cc1c[nH]c2ccccc12)C(=O)NCC(=O)N[C@H](CC(C)C)C(=O)N[C@H](CCCNC(=N)N)C(=O)N[C@H](CCCCN)C(=O)N[C@H](CCCCN)C(=O)N[C@H](CCCNC(=N)N)C(N)=O [WCopW20] (H-[dW][dA][dA][dW][dI]G[dL][dR][dK][dK][dR]-NH2) | > 20 µM | > 20 µM | 2.5 µM (≈ 3.46 µg/mL) | > 20 µM |  |  |  | 0.11% | 0.13% | 0.45% |  |  |  |  |
